Source: patent US11753407B2, “Compounds for treating spinal muscular atrophy” (PTC Therapeutics, Inc., priority 2012, dated 2023)
One block for each compound: values may come before it.

How the values were obtained:
[1] = system: SMN2 minigene mRNA (SMN2-A minigene) in HEK293H cells; assay: SMN2 minigene mRNA splicing RT-qPCR assay in cultured cells; format: cell-based, human; conditions: Homo sapiens, HEK293-H; concentration increasing full length SMN2 mRNA 1.5-fold relative to vehicle-treated cells; HEK293H cells with SMN2-A minigene, 24 hours, 7-point concentration data; read-out: EC1.5x for production of full length SMN2 mRNA
Procedure, shortened: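 Stable SMN2-A minigene HEK293H; cpd 7-pt 3.16-fold series, 200× in DMSO, 24 h, 37 °C, n=2. Lysates → multiplex RT-qPCR (minigene FL + GAPDH), efficiency-corrected ΔΔCt vs vehicle. EC1.5× = 1.5-fold FL mRNA gain.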

[2] = system: Smn protein in SMA patient fibroblast cells (GM03813); assay: Smn protein assay in cultured cells (SMN HTRF); format: cell-based, human; conditions: SMA patient fibroblast cells, 48 hours; for EC1.5x for Smn protein expression: 7-point concentration curve, SMN HTRF, concentration producing 1.5 times Smn protein vs DMSO vehicle control; for maximum fold (Fold) increase of Smn protein: 7-point concentration data, fold relative to vehicle control
Procedure, shortened: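 Fibroblasts, SMA patient; 5,000 cells/well; 7-pt curve, 3.16-fold serial dilution; 48 h, 37 °C, 5% CO2; RIPA lysis 1 h RT; anti-SMN d2 + kryptate overnight RT; HTRF 665/620 nm; fold vs DMSO; EC1.5×, max fold.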

melting point: 132 to 134 °C
SMILES: CCN(C)C1CC=C(c2ccc3nc(-c4ccc(OC)c(OC)c4)cc(=O)n3c2)CC1 (centres unmarked) [Compound 368, 2-(3,4-dimethoxyphenyl)-7-{4-[ethyl(methyl)amino]cyclohex-1-en-1-yl}-4H-pyrido[1,2-a]pyrimidin-4-one]
EC (1.5-fold increase) [1]: < 0.1 µM
EC1.5x for Smn protein expression [2]: *** (an EC1.5× between >0.3 μM and ≤1 μM is indicated by three stars (***))
maximum fold (Fold) increase of Smn protein [2]: **** (a fold increase between >1.5 and ≤1.65 is indicated by four stars (****))

melting point: 116 to 118 °C
SMILES: CCCN(C)C1CC=C(c2ccc3nc(-c4ccc(OC)c(OC)c4)cc(=O)n3c2)CC1 (centres unmarked) [Compound 369, 2-(3,4-dimethoxyphenyl)-7-{4-[methyl(propyl)amino]cyclohex-1-en-1-yl}-4H-pyrido[1,2-a]pyrimidin-4-one]
EC (1.5-fold increase) [1]: < 0.1 µM
EC1.5x for Smn protein expression [2]: ** (an EC1.5× between >1 μM and ≤3 μM is indicated by two stars (**))
maximum fold (Fold) increase of Smn protein [2]: *** (a fold increase between >1.35 and ≤1.5 is indicated by three stars (***))

SMILES: CCN1CC=C(c2ccc3nc(-c4ccc(OC)c(OC)c4)cc(=O)n3c2)CC1 [Compound 370, 2-(3,4-dimethoxyphenyl)-7-(1-ethyl-1,2,3,6-tetrahydropyridin-4-yl)-4H-pyrido[1,2-a]pyrimidin-4-one]
EC (1.5-fold increase) [1]: 0.1 to 0.3 µM
EC1.5x for Smn protein expression [2]: *** (an EC1.5× between >0.3 μM and ≤1 μM is indicated by three stars (***))
maximum fold (Fold) increase of Smn protein [2]: ***** (a fold increase >1.65 is indicated by five stars (*****))
melting point: 170 to 172 °C

SMILES: COc1ccc(-c2ccc3nc(C4=CCNCC4)cc(=O)n3c2)cc1OC [Compound 371, 7-(3,4-dimethoxyphenyl)-2-(1,2,3,6-tetrahydropyridin-4-yl)-4H-pyrido[1,2-a]pyrimidin-4-one]
EC (1.5-fold increase) [1]: 0.1 to 0.3 µM
EC1.5x for Smn protein expression [2]: *** (an EC1.5× between >0.3 μM and ≤1 μM is indicated by three stars (***))
maximum fold (Fold) increase of Smn protein [2]: **** (a fold increase between >1.5 and ≤1.65 is indicated by four stars (****))
melting point: 172 to 178 °C

melting point: 260 to 264 °C
SMILES: Cc1cn2cc(-c3cc(=O)n4cc(N5CCN(C(C)C)CC5)ccc4n3)cc(F)c2n1 [Compound 373, 2-(8-fluoro-2-methylimidazo[1,2-a]pyridin-6-yl)-7-[4-(propan-2-yl)piperazin-1-yl]-4H-pyrido[1,2-a]pyrimidin-4-one]
EC (1.5-fold increase) [1]: < 0.1 µM
EC1.5x for Smn protein expression [2]: **** (an EC1.5x≤0.3 μM is indicated by four stars (****))
maximum fold (Fold) increase of Smn protein [2]: **** (a fold increase between >1.5 and ≤1.65 is indicated by four stars (****))

melting point: 287 to 292 °C
SMILES: Cc1cn2cc(-c3cc(=O)n4cc(N5CCN(C(C)C)CC5)ccc4n3)cc(Cl)c2n1 [Compound 374, 2-(8-chloro-2-methylimidazo[1,2-a]pyridin-6-yl)-7-[4-(propan-2-yl)piperazin-1-yl]-4H-pyrido[1,2-a]pyrimidin-4-one]
EC (1.5-fold increase) [1]: < 0.1 µM
EC1.5x for Smn protein expression [2]: **** (an EC1.5x≤0.3 μM is indicated by four stars (****))
maximum fold (Fold) increase of Smn protein [2]: ***** (a fold increase >1.65 is indicated by five stars (*****))

SMILES: Cc1cn2cc(-c3ccc4nc(C5=CCNCC5)cc(=O)n4c3)ccc2n1 [Compound 375, 7-(2-methylimidazo[1,2-a]pyridin-6-yl)-2-(1,2,3,6-tetrahydropyridin-4-yl)-4H-pyrido[1,2-a]pyrimidin-4-one]
EC (1.5-fold increase) [1]: < 0.1 µM
EC1.5x for Smn protein expression [2]: **** (an EC1.5x≤0.3 μM is indicated by four stars (****))
maximum fold (Fold) increase of Smn protein [2]: **** (a fold increase between >1.5 and ≤1.65 is indicated by four stars (****))
melting point: 197 to 201 °C

SMILES: Cc1cn2cc(-c3ccc4nc(C5=CCN(C)CC5)cc(=O)n4c3)ccc2n1 [Compound 376, 7-(2-methylimidazo[1,2-a]pyridin-6-yl)-2-(1-methyl-1,2,3,6-tetrahydropyridin-4-yl)-4H-pyrido[1,2-a]pyrimidin-4-one]
EC (1.5-fold increase) [1]: < 0.1 µM
EC1.5x for Smn protein expression [2]: *** (an EC1.5× between >0.3 μM and ≤1 μM is indicated by three stars (***))
maximum fold (Fold) increase of Smn protein [2]: *** (a fold increase between >1.35 and ≤1.5 is indicated by three stars (***))
melting point: 203 to 207 °C

SMILES: COc1ccc(-c2ccc3nc(C4=CCN(C)CC4)cc(=O)n3c2)cc1OC [Compound 377, 7-(3,4-dimethoxyphenyl)-2-(1-methyl-1,2,3,6-tetrahydropyridin-4-yl)-4H-pyrido[1,2-a]pyrimidin-4-one]
EC (1.5-fold increase) [1]: 0.3 to 1 µM
EC1.5x for Smn protein expression [2]: ** (an EC1.5× between >1 μM and ≤3 μM is indicated by two stars (**))
maximum fold (Fold) increase of Smn protein [2]: **** (a fold increase between >1.5 and ≤1.65 is indicated by four stars (****))
melting point: 149 to 152 °C

SMILES: CCCN1CC=C(c2cc(C)c3nc(-c4ccc(OC)c(OC)c4)cc(=O)n3c2)CC1 [Compound 378, 2-(3,4-dimethoxyphenyl)-9-methyl-7-(1-propyl-1,2,3,6-tetrahydropyridin-4-yl)-4H-pyrido[1,2-a]pyrimidin-4-one]
EC (1.5-fold increase) [1]: < 0.1 µM
EC1.5x for Smn protein expression [2]: ** (an EC1.5× between >1 μM and ≤3 μM is indicated by two stars (**))
maximum fold (Fold) increase of Smn protein [2]: **** (a fold increase between >1.5 and ≤1.65 is indicated by four stars (****))
melting point: 171 to 177 °C

SMILES: COc1ccc(-c2cc(=O)n3cc(C4=CCN(C5CCC5)CC4)cc(C)c3n2)cc1OC [Compound 379, 7-(1-cyclobutyl-1,2,3,6-tetrahydropyridin-4-yl)-2-(3,4-dimethoxyphenyl)-9-methyl-4H-pyrido[1,2-a]pyrimidin-4-one]
EC (1.5-fold increase) [1]: 0.1 to 0.3 µM
maximum fold (Fold) increase of Smn protein [2]: *** (a fold increase between >1.35 and ≤1.5 is indicated by three stars (***))
melting point: 167 to 178 °C

melting point: 190 to 194 °C
SMILES: Cc1nc2ccc(-c3cc(=O)n4cc(N5CCC(N)CC5)ccc4n3)cc2s1 [Compound 381, 7-(4-aminopiperidin-1-yl)-2-(2-methyl-1,3-benzothiazol-6-yl)-4H-pyrido[1,2-a]pyrimidin-4-one]
EC (1.5-fold increase) [1]: 0.1 to 0.3 µM
EC1.5x for Smn protein expression [2]: * (An EC1.5× for Smn protein expression between >3 μM and ≤10 μM is indicated by one star (*))
maximum fold (Fold) increase of Smn protein [2]: *** (a fold increase between >1.35 and ≤1.5 is indicated by three stars (***))

melting point: 196 to 200 °C
SMILES: Cc1nc2ccc(-c3cc(=O)n4cc(N5CCC(N)C5)ccc4n3)cc2s1 (centres unmarked) [Compound 382, 7-(3-aminopyrrolidin-1-yl)-2-(2-methyl-1,3-benzothiazol-6-yl)-4H-pyrido[1,2-a]pyrimidin-4-one]
EC (1.5-fold increase) [1]: < 0.1 µM
EC1.5x for Smn protein expression [2]: *** (an EC1.5× between >0.3 μM and ≤1 μM is indicated by three stars (***))
maximum fold (Fold) increase of Smn protein [2]: **** (a fold increase between >1.5 and ≤1.65 is indicated by four stars (****))

melting point: 235 to 240 °C
SMILES: Cc1nc2ccc(-c3cc(=O)n4cc(N5CC[C@@H](N(C)C)C5)ccc4n3)cc2s1 [Compound 383, 7-[(3R)-3-(dimethylamino)pyrrolidin-1-yl]-2-(2-methyl-1,3-benzothiazol-6-yl)-4H-pyrido[1,2-a]pyrimidin-4-one]
EC (1.5-fold increase) [1]: 0.3 to 1 µM
maximum fold (Fold) increase of Smn protein [2]: ** (a fold increase between >1.2 and ≤1.35 is indicated by two stars (**))

SMILES: Cc1nc2ccc(-c3cc(=O)n4cc(C5=CCNCC5)ccc4n3)cc2s1 [Compound 384, 2-(2-methyl-1,3-benzothiazol-6-yl)-7-(1,2,3,6-tetrahydropyridin-4-yl)-4H-pyrido[1,2-a]pyrimidin-4-one]
EC (1.5-fold increase) [1]: < 0.1 µM
EC1.5x for Smn protein expression [2]: **** (an EC1.5x≤0.3 μM is indicated by four stars (****))
maximum fold (Fold) increase of Smn protein [2]: ***** (a fold increase >1.65 is indicated by five stars (*****))
melting point: 124 to 126 °C

melting point: 258 to 262 °C
SMILES: COCCN1CCN(c2ccc3nc(-c4cc(F)c5nc(C)cn5c4)cc(=O)n3c2)CC1 [Compound 385, 2-(8-fluoro-2-methylimidazo[1,2-a]pyridin-6-yl)-7-[4-(2-methoxyethyl)piperazin-1-yl]-4H-pyrido[1,2-a]pyrimidin-4-one]
EC (1.5-fold increase) [1]: < 0.1 µM
EC1.5x for Smn protein expression [2]: *** (an EC1.5× between >0.3 μM and ≤1 μM is indicated by three stars (***))
maximum fold (Fold) increase of Smn protein [2]: ***** (a fold increase >1.65 is indicated by five stars (*****))

SMILES: COc1ccc(-c2cc(=O)n3cc(C4=CCN(C5COC5)CC4)cc(C)c3n2)cc1OC [Compound 386, 2-(3,4-dimethoxyphenyl)-9-methyl-7-[1-(oxetan-3-yl)-1,2,3,6-tetrahydropyridin-4-yl]-4H-pyrido[1,2-a]pyrimidin-4-one]
EC (1.5-fold increase) [1]: 0.3 to 1 µM
maximum fold (Fold) increase of Smn protein [2]: * (A maximum fold increase of ≤1.2 is indicated by one star (*))
melting point: 180 to 195 °C

SMILES: COc1ccc(-c2cc(=O)n3cc(C4=CCN(C(C)C)CC4)cc(C)c3n2)cc1OC [Compound 387, 2-(3,4-dimethoxyphenyl)-9-methyl-7-[1-(propan-2-yl)-1,2,3,6-tetrahydropyridin-4-yl]-4H-pyrido[1,2-a]pyrimidin-4-one]
EC (1.5-fold increase) [1]: 0.3 to 1 µM
maximum fold (Fold) increase of Smn protein [2]: ** (a fold increase between >1.2 and ≤1.35 is indicated by two stars (**))
melting point: 153 to 163 °C
